From BindingDB's records for PubMed 1464308 (Cnrs, 1992)

Each molecule was assayed against 5-hydroxytryptamine receptor 5A (Mus musculus, UniProt P30966).
Chain of 5-hydroxytryptamine receptor 5A (P30966 whole entry): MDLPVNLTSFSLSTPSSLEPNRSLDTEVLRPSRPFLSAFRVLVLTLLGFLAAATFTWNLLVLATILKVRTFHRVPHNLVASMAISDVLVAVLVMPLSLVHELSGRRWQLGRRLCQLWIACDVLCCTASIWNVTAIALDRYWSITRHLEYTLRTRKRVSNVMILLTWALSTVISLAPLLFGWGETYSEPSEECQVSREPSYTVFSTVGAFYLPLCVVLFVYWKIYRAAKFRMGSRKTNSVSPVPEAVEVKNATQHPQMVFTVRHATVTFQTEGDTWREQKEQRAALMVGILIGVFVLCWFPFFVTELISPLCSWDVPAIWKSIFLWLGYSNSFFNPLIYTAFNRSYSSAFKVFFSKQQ

**Q.** For `CCCN(CCC)C1CCc2cccc(O)c2C1` (centres undefined), which Ki is on record?
**A.** 1260 nM

**Q.** For `CC[C@@H](CO)NC(=O)[C@@H]1C=C2c3cccc4c3c(cn4C)C[C@H]2N(C)C1`, which Ki is on record?
**A.** 63.1 nM

**Q.** `NCCc1ccc(O)c(O)c1` was tested. Which Ki did it give?
**A.** > 10000 nM

**Q.** `O=C(c1ccc(F)cc1)C1CCN(CCn2c(=O)[nH]c3ccccc3c2=O)CC1` [3-(2-{4-[(4-fluorophenyl)carbonyl]piperidin-1-yl}ethyl)-1,2,3,4-tetrahydroquinazoline-2,4-dione] was tested. Which Ki did it give?
**A.** > 10000 nM

**Q.** How did the Ki turn out when `CN(C)CCc1c[nH]c2ccc(O)cc12` [3-[2-(dimethylamino)ethyl]indol-5-ol] was run?
**A.** 1000 nM

**Q.** With `COc1ccc2[nH]cc(C3=CCNCC3)c2c1` [5-Methoxy-3-(1,2,3,6-tetrahydro-pyridin-4-yl)-1H-indole(RU-24969)] as the molecule, how does the Ki read?
**A.** 316 nM

**Q.** How did the Ki turn out when `O=C(CCCN1CCC2(CC1)C(=O)NCN2c1ccccc1)c1ccc(F)cc1` [8-[4-(4-fluorophenyl)-4-oxidanylidene-butyl]-1-phenyl-1,3,8-triazaspiro[4.5]decan-4-one] was run?
**A.** 2510 nM

**Q.** How did the Ki turn out when `CN1C[C@H](C(=O)N[C@]2(C)O[C@@]3(O)[C@@H]4CCCN4C(=O)[C@H](Cc4ccccc4)N3C2=O)C=C2c3cccc4[nH]cc(c34)C[C@H]21` [12'-hydroxy-2'-methyl-5'alpha-(phenylmethyl)ergotaman-3',6',18-trione] was run?
**A.** 3.98 nM

**Q.** With `CC(C)NCC(O)COc1cccc2[nH]ccc12` (centres undefined) [LB-46] as the molecule, how does the Ki read?
**A.** > 10000 nM

**Q.** With `CCN(CC)C(=O)[C@@H]1C=C2c3cccc4[nH]c(Br)c(c34)C[C@H]2N(C)C1` [LSD,2-Bromo] as the molecule, how does the Ki read?
**A.** 1.99 nM

**Q.** `NCC(O)c1ccc(O)c(O)c1` (stereo not drawn) [Noradrenaline,(+)] was tested. Which Ki did it give?
**A.** > 10000 nM

**Q.** How did the Ki turn out when `CNS(=O)(=O)Cc1ccc2[nH]cc(CCN(C)C)c2c1` [Sumax] was run?
**A.** > 10000 nM

**Q.** With `FC(F)(F)c1cccc(N2CCNCC2)c1` [TFMPP] as the molecule, how does the Ki read?
**A.** 2510 nM

**Q.** For `CSc1ccc2c(c1)C(N1CCN(C)CC1)Cc1ccccc1S2` (centres undefined) [methanesulfonic acid;1-methyl-4-(3-methylsulfanyl-5,6-dihydrobenzo[b][1]benzothiepin-5-yl)piperazine], which Ki is on record?
**A.** 100 nM
